# According to patent publication US5147868A, “Thienamycin renal peptidase inhibitors” (Merck & Co., Inc., priority 1992, dated 1992):
# Columns and labels:
# [1] = biological target: T1, dipeptidase (E.C.3.4.13.11), pig renal enzyme (Sus scrofa, UniProt P22412); assay: in vitro inhibition of hydrolysis of glycyldehydrophenylalanine (GDP) by solubilized renal dipeptidase; type: biochemical, pig (hog kidneys)
# T1 construct: solubilized preparation of dipeptidase isolated from hog kidneys; from tissue; host or cells: hog kidney
# T1 sequence (P22412 17-409): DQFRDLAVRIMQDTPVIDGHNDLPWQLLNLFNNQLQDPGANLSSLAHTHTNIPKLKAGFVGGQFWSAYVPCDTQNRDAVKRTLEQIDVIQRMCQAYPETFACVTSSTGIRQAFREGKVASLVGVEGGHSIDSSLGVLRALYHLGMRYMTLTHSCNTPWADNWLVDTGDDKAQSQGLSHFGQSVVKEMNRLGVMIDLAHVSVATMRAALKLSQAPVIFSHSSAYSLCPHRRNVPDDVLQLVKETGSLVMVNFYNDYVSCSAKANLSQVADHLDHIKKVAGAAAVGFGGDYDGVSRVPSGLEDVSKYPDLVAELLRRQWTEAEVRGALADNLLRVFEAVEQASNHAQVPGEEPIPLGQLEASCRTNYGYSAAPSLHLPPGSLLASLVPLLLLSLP
# Protocol: This measured the ability of compounds to inhibit hydrolysis of glycyldehydrophenylalanine (GDP) by a solubilized preparation of dipeptidase isolated from hog kidneys. The procedure is as follows: to a 1 ml. system containing 50 mM "MOPS" (3-(N-morpholino)propanesulfonic acid) buffer, pH 7.1, is added 5 μg of lyophilized enzyme, and the test compound at a final concentration of 0.1 mM. After a five minute incubation at 37° C., GDP is added to a final concentration of 0.05 mM. Incubation is continued for 10 minutes, at 37° C. and hydrolysis of GDP is measured by the change in optical density with time at 275 nm. Inhibition of the enzyme is gauged by comparison to a standard run containing no inhibitor and is expressed as the inhibitor binding constant, Ki.
# A 1 ml. system of 50 mM "MOPS" buffer, pH 7.1, is used. To this is added 5 μg of the pig renal enzyme and an amount of the test compound to bring its final concentration to 0.1 mM. After a five minute incubation at 37° C., an amount of GDP is added to bring its final concentration to 0.05 mM. The system is again incubated for 10 minutes, at 37° C. Hydrolysis of GDP is measured by its change in optical density with time at 275 nm. Inhibition of the enzyme is gauged by comparison to a standard run containing no inhibitor and is presented as percent inhibition.
# renal dipeptidase = biological target: T2, renal dipeptidase (Sus scrofa, UniProt P22412); assay: affinity and hydrolysis of substrates by renal dipeptidase; type: biochemical, pig (hog kidneys); settings: compared with thienamycin
# T2 construct: disulfide-linked homodimer
# T2 sequence (P22412 17-384): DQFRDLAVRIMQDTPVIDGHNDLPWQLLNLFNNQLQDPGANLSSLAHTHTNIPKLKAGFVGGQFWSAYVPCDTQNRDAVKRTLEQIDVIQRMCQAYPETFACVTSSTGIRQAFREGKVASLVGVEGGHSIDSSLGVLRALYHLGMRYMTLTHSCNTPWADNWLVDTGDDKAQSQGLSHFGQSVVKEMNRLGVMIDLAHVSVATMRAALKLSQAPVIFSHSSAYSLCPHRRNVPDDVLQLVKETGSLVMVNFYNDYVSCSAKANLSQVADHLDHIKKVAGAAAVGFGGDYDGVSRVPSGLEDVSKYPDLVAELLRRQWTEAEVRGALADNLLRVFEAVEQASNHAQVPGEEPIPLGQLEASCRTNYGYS
structure (smiles),measurement,setting,value
CC1(C)CC1C(=O)N/C(=C\CCCC(=O)O)C(=O)O (racemic) [Compound 64],Ki,"[1]; pH 7.1, 37° C., concentration giving 50% inhibition, calculated from multiple assays, GDP substrate",48 nM
"NCC(=O)NC(=Cc1ccccc1)C(=O)O [GDP, glycyldehydrophenylalanine]",maximal velocity of hydrolysis by renal dipeptidase,renal dipeptidase,much higher maximal velocity of hydrolysis
"CCCCC/C=C(\NC(=O)[C@H]1CC1(C)C)C(=O)O [dextrorotatory isomer, (+) Z-2-(2,2-dimethylcyclopropanecarboxamido)-2-octenoic acid]",activity of resolved isomers,"[1]; resolved racemic octenoic acid, test not specified",The activity resides in the dextrorotatory isomer
